Consider two molecules from patent US20030135065A1, “Process for the production of L-DOPA ethyl ester” (priority 2001, published 2003).

A short description of data set [1]: Particle size of LDEE free base. The class given is physicochemical. As to conditions: free base obtained by this process. The text has this: (§1) L-DOPA ethyl ester as free base obtained by this process is stable, non-hygroscopic, and crystalline. The LDEE free base has a particle size from 5 to 300 micron and an average particle size of 80 micron.
Data set [2] in a line: Hygroscopicity of L-DOPA ethyl ester forms. The class given is physicochemical.
From the text: (§2) Great Britain Patent No. 1,364,505 and corresponding U.S. Pat. No. 3,803,120, assigned to Hoffman-La Roche, describe the synthesis of L-DOPA ethyl ester hydrochloride salt and free base. This compound is used as an intermediate in the synthesis of other compounds and is not characterized in the patent specification. […] This material cannot be used for pharmaceutical compositions. Likewise, the L-DOPA ethyl ester free base as prepared in these two patents is impure and not stable and thus also is not suitable for pharmaceutical compositions. At best it can be used as a synthetic intermediate for further chemical synthesis as described in the cited patents.
as §1

The conditions of data set [3]: composition produced according to the Milman process (U.S. Pat. No. 5,354,885); 6 months at 40° C.; cited from earlier work.
Data set [4] in a line: Stability of L-DOPA ethyl ester forms. The class given is physicochemical.
From the text: as §2, §1

[5] abbreviates: free base obtained by this process.
Setting [6] is: material synthesized by the methods of GB 1,364,505 / U.S. Pat. No. 3,803,120.

In the case of `CCOC(=O)[C@@H](N)Cc1ccc(O)c(O)c1` [L-DOPA ethyl ester], in data set [1], the average particle size is given as 80 micron. The hygroscopicity result in data set [2] (setting [5]) is reported as “non-hygroscopic”. Also, the “L-DOPA ethyl ester remaining after incubation” value in data set [3] was “at least 97 % by weight”. Also, the figures for the stability result in data set [4] (setting [5]) and in data set [4] (setting [6]) were “stable” and “not stable”, respectively.

On to `CCOC(=O)[C@@H](N)Cc1ccc(O)c(O)c1.Cl` [L-DOPA ethyl ester hydrochloride salt, L-DOPA ethyl ester hydrochloride, reference compound], for which the hygroscopicity entry in data set [2] (setting [6]) is “hygroscopic”. Also, the stability entry in data set [4] (setting [6]) was “not stable”.
